The values below come from ChEMBL document CHEMBL5042531, “N-Substituted 5-(1H-Indol-2-yl)-2-methoxyanilines Are Allosteric Inhibitors of the Linoleate Oxygenase Activity of Selected Mammalian ALOX15 Orthologs: Mechanism of Action” (J Med Chem, 2022).

Calls of active or inactive are those of the source. The rule behind the calls is not given here.

The term Ki denotes the dissociation constant of the complex between target and ligand, obtained from inhibition or displacement. As usually defined, the IC50 is the concentration that inhibits the measured activity by half.

For data set [1], the target named is T1, Polyunsaturated fatty acid lipoxygenase ALOX15 (Homo sapiens) (UniProt P16050).
T1 sequence (whole entry): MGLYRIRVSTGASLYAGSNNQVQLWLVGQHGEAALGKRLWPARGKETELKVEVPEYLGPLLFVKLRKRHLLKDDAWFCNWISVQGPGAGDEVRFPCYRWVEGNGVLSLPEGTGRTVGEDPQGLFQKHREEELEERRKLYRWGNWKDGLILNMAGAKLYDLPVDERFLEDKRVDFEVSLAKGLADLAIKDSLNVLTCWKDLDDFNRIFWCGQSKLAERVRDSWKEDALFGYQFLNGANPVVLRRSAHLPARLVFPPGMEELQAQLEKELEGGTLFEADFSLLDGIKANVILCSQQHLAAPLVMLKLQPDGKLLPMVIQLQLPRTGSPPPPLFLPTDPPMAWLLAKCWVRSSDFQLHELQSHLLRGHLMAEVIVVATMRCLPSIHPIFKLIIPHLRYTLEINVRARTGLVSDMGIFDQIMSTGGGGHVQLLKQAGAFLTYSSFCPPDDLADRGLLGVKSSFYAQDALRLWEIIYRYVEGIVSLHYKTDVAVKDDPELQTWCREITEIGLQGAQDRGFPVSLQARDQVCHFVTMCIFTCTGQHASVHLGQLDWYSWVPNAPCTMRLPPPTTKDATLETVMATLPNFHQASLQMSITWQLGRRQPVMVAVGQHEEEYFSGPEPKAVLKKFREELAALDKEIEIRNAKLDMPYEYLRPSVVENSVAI
Nature of the data set: Selectivity ratio of IC50 for inhibition of recombinant human N-terminal His-tagged ALOX15 expressed in Escherichia coli Rosetta2(DE3)pLysS using linoleic acid as substrate to IC50 for inhibition of recombinant human N-terminal His-tagged ALOX15 expressed in Escherichia coli Rosetta2(DE3)pLysS using arachidonic acid as substrate.

Data set [2] concerns the target T2, Polyunsaturated fatty acid lipoxygenase ALOX15 (Oryctolagus cuniculus) (UniProt P12530).
T2 sequence (whole entry): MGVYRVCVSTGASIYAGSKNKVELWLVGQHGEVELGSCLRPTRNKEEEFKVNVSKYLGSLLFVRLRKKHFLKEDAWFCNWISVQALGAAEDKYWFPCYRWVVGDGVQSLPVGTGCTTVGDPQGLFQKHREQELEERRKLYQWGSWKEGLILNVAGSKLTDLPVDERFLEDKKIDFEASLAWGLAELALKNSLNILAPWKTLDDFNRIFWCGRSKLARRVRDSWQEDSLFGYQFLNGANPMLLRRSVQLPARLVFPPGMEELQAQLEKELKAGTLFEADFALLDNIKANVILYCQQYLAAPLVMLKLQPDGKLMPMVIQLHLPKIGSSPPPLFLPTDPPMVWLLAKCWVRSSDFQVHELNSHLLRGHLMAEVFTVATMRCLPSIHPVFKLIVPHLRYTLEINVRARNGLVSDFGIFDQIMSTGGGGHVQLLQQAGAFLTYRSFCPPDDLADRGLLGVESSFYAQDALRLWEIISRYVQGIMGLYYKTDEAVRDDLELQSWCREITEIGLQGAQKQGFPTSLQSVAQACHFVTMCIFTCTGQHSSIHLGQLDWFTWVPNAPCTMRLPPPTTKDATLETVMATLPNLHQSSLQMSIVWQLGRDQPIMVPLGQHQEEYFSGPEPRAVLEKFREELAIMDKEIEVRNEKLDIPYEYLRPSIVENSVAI
The data set is described as follows: Inhibition of wild type rabbit N-terminal His-tagged ALOX15 expressed in Escherichia coli assessed as decrease in Kcat using arachidonic acid as substrate.

Data set [3] has as its target T2, Polyunsaturated fatty acid lipoxygenase ALOX15 (Oryctolagus cuniculus). The data set is described as follows: Inhibition of wild type rabbit N-terminal His-tagged ALOX15 expressed in Escherichia coli assessed as decrease in Kcat using linoleic acid as substrate.
Data set [4] has the same target. Nature of the data set: Inhibition of wild type rabbit N-terminal His-tagged ALOX15 expressed in Escherichia coli assessed as effect on Km using linoleic acid as substrate.
The target in data set [5] is T3, Polyunsaturated fatty acid lipoxygenase ALOX15 (Oryctolagus cuniculus, UniProt P12530).
T3 sequence (P12530 whole entry): T2 sequence (whole entry)
Nature of the data set: Non-competitive inhibition of wild type rabbit N-terminal His-tagged ALOX15 expressed in Escherichia coli assessed as inhibition constant using linoleic acid as substrate.

Data set [6] addresses T2, Polyunsaturated fatty acid lipoxygenase ALOX15 (Oryctolagus cuniculus). The data set is described as follows: Selectivity ratio of IC50 for inhibition of wild type Rabbit N-terminal His-tagged ALOX15 expressed in Escherichia coli using linoleic acid as substrate to IC50 for inhibition of wild type rabbit N-terminal His-tagged ALOX15 expressed in Escherichia coli using arachidonic acid as substrate by spectrophotometric assay.

For data set [7], the target named is T3, Polyunsaturated fatty acid lipoxygenase ALOX15. The data set is described as follows: Inhibition of wild type rabbit N-terminal His-tagged ALOX15 expressed in Escherichia coli using arachidonic acid as substrate by spectrophotometric assay.
Data set [8] shares this target. The data set is described as follows: Inhibition of wild type rabbit N-terminal His-tagged ALOX15 expressed in Escherichia coli using linoleic acid as substrate by spectrophotometric assay.
For data set [9], the species on record is Oryctolagus cuniculus. Nature of the data set: Effect on rabbit wild type ALOX15 Ile418Ala mutant-mediated product pattern assessed as reduction in 12-H(p)ETE formation using arachidonic acid as substrate by 4 uM by RP-HPLC analysis.
Data set [10] concerns the target T2, Polyunsaturated fatty acid lipoxygenase ALOX15 (Oryctolagus cuniculus). Nature of the data set: Effect on rabbit wild type ALOX15-mediated product pattern using arachidonic acid as substrate by 4 uM by RP-HPLC analysis.
Data set [11] deals with T4, Polyunsaturated fatty acid lipoxygenase ALOX15 (Mus musculus) (UniProt P39654).
T4 sequence (whole entry): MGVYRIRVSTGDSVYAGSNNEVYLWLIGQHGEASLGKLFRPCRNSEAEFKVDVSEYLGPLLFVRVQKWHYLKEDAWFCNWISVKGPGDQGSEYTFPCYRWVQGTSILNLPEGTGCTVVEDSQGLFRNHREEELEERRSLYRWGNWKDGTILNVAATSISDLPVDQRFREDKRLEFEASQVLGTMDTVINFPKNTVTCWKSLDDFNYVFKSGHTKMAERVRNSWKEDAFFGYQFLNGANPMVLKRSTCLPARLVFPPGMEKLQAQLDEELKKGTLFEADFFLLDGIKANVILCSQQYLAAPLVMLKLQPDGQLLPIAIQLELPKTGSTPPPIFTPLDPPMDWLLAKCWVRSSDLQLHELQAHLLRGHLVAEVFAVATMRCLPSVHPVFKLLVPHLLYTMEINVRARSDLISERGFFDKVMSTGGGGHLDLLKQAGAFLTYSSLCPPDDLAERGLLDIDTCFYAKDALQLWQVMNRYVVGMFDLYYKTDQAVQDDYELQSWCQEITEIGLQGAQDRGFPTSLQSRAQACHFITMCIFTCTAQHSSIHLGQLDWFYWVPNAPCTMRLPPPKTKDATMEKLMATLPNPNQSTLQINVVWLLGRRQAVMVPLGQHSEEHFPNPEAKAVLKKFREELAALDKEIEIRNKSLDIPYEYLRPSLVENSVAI
The data set is described as follows: Inhibition of recombinant mouse N-terminal His-tagged ALOX15 expressed in Escherichia coli Rosetta2(DE3)pLysS at 2 uM using linoleic acid as substrate by HPLC analysis.

In data set [12] the target is T4, Polyunsaturated fatty acid lipoxygenase ALOX15 (Mus musculus). The data set is described as follows: Inhibition of recombinant mouse N-terminal His-tagged ALOX15 expressed in Escherichia coli Rosetta2(DE3)pLysS at 2 uM using arachidonic acid as substrate by HPLC analysis.
Data set [13] has as its target T3, Polyunsaturated fatty acid lipoxygenase ALOX15. The data set is described as follows: Mixed mode inhibition of wild type Rabbit N-terminal His-tagged ALOX15 expressed in Escherichia coli assessed as inhibition constant using arachidonic acid as substrate.
A short description of data set [14]: Inhibition of rabbit N-terminal His-tagged ALOX15 L183E/L192E double mutant expressed in Escherichia coli linoleic acid as substrate by spectrophotometric assay. Also noted: species or system Oryctolagus cuniculus.
Data set [15] concerns the target T3, Polyunsaturated fatty acid lipoxygenase ALOX15. Nature of the data set: Mixed mode inhibition of wild type Rabbit N-terminal His-tagged ALOX15 expressed in Escherichia coli assessed as inhibition constant using linoleic acid as substrate.
Data set [16] is described as follows: Inhibition of rabbit N-terminal His-tagged ALOX15 L183E/L192E double mutant expressed in Escherichia coli arachidonic acid as substrate by spectrophotometric assay. On the set-up: species or system Oryctolagus cuniculus.
For data set [17], the species on record is Oryctolagus cuniculus. Nature of the data set: Effect on rabbit wild type ALOX15 Ile418Ala mutant-mediated product pattern using arachidonic acid as substrate by 4 uM by RP-HPLC analysis.
Data set [18] addresses T2, Polyunsaturated fatty acid lipoxygenase ALOX15 (Oryctolagus cuniculus). Nature of the data set: Selectivity ratio of IC50 for inhibition of wild type rabbit N-terminal His-tagged ALOX15 expressed in Escherichia coli using linoleic acid as substrate to IC50 for inhibition of wild type rabbit N-terminal His-tagged ALOX15 expressed in Escherichia coli using arachidonic acid as substrate.

Compound in data set [19]: COc1ccc(-c2cc3cc(F)ccc3[nH]2)cc1NS(=O)(=O)NC(=O)OCC(C)C
Nature of the data set: Inhibition of wild type Rabbit N-terminal His-tagged ALOX15 expressed in Escherichia coli assessed as effect on Km using arachidonic acid as substrate. As to conditions: Oryctolagus cuniculus.

For `COc1ccc(-c2cc3cc(F)c(F)cc3[nH]2)cc1NS(=O)(=O)NC(=O)OCC(C)C`, in data set [1], the Ratio IC50 came to 0.03.

For `COc1ccc(-c2cc3cc(F)ccc3[nH]2)cc1NS(=O)(=O)NC(=O)OCC(C)C`, the inhibition result in [2] is “Active”. Moreover, the result in [3] and in data set [4] was Active. In addition, the inhibitory constant (Ki) in data set [5] was found to be 290 nM. The Ratio IC50 in data set [6] was 0.02. Further, the figures for the half-inhibitory concentration (IC50) in [7] and in data set [8] were 20800 nM and 420 nM, respectively.

Take `C=CCOC(=O)NS(=O)(=O)Nc1cccc(-c2cc3ccccc3[nH]2)c1`: the results for the IC50 in data set [7] and in data set [8] were greater than 50000 nM and 15400 nM, respectively.

Take `CCCCCCCCOC(=O)NS(=O)(=O)Nc1cc(-c2cc3cc(F)ccc3[nH]2)ccc1OC`: the Ratio IC50 in data set [6] was 0.043. The results for the concentration for half-maximal inhibition (IC50) in data set [7] and in [8] were 1080 nM and 47 nM, respectively.

On to `C=CCOC(=O)NS(=O)(=O)Nc1cc(-c2cc3cc(F)ccc3[nH]2)ccc1OC`, for which the Ratio IC50 in data set [6] is 0.023. Also, the IC50 was found to be 23300 nM in data set [7] and 540 nM in data set [8].

As to `CCCCCCCCOC(=O)NS(=O)(=O)Nc1cc(-c2cc3ccccc3[nH]2)ccc1OC`, the inhibition result in data set [2] was “Active”. The outcome (in [3]; in [4]; in the data set listed under Oryctolagus cuniculus [9]) was Active. For the same molecule, the result in data set [10] was inactive. Moreover, the inhibition result in data set [11] and in data set [12] was “inactive” in each case.

On to `C=CCOC(=O)NS(=O)(=O)Nc1cc(-c2cc3ccccc3[nH]2)ccc1OC`, for which the Ratio IC50 in data set [6] worked out at 0.014. The values for the IC50 in data set [7] and in data set [8] were 43300 nM and 630 nM, respectively.

In the case of `CCCCCCCCOC(=O)NS(=O)(=O)Nc1cccc(-c2cc3ccccc3[nH]2)c1`, the Ki in data set [13] is 3130 nM; in [5], 790 nM; in [15] it was 790 nM. Besides, the IC50 worked out at 7020 nM in [14], 2790 nM in [7], 4950 nM in [16] and 1550 nM in [8]. Further, the Ratio IC50 in data set [6] was 0.55. Further, the outcome (in data set [10]; in the data set filed under Oryctolagus cuniculus [17]) was inactive.

For the molecule `CC(C)COC(=O)NS(=O)(=O)Nc1cccc(-c2cc3ccccc3[nH]2)c1`, the IC50 in data set [7] was greater than 50000 nM; in data set [8] it was 30000 nM.

On to `COc1ccc(-c2cc3ccccc3[nH]2)cc1NS(=O)(=O)NC(=O)OCC(C)C`, for which the IC50 in data set [7] was greater than 50000 nM; in data set [8] it was 1450 nM.

Regarding `CCCCCc1ccc(S(=O)(=O)NCCc2c[nH]c3ccccc23)cc1`, the Ratio IC50 in data set [18] was 0.8.

On to `CCCCc1ccc(S(=O)(=O)NCCc2c(-c3ccc(OC)cc3)[nH]c3ccccc23)cc1`, for which, in [18], the Ratio IC50 stood at 0.22.

With `CCCCCc1ccc(S(=O)(=O)NCCc2nc(-c3ccccn3)[nH]c2-c2ccc(OC)cc2)cc1`, the Ratio IC50 in data set [18] worked out at 0.02.

B1: Polyunsaturated fatty acid lipoxygenase ALOX15 (Oryctolagus cuniculus), P12530 (protein)
chain: T2 sequence (whole entry)
On to B1, for which the Km result in [19] is “Active”.
